# Source: patent US20190099383A1, “Transdermal Delivery of Selexipag Metabolite” (Samos Pharmaceuticals, Inc., priority 2017, published 2019)
# Like-named read-outs stand apart in the source and are kept apart here.
# Assays:
# [1] = test system: carboxylesterases; conditions: cited from earlier work
# [2] = headache, diarrhea, pain in the jaw, nausea and myalgia; cited from earlier work
# [3] = In vitro unenhanced skin flux, Franz diffusion cells; type: in vitro ADME, human; conditions: 168 hour period, saturated solution in 80/20% ethanol/water, no enhancers
# Description: All in vitro skin permeation studies are conducted using the PermeGear Membrane Transport System. […] Skin flux studies are run for a period of 168 hours. […] The receiver compartment is refilled with fresh receiver medium.
# [4] = cited from earlier work
# [5] = rat; cited from earlier work
# [6] = target: prostacyclin IP receptor (Homo sapiens, UniProt P43119); conditions: ACT 333679 versus selexipag; cited from earlier work
# [7] = Formulation B enhancer system, 2, 4, 8, 12 and 24 hour time points (FIG. 1)
# Description: One skin donor and three diffusion cells per formulation were used in these in vitro skin permeation experiments. Split thickness dermatomed (approximately at 375 μm) human cadaver skin was used to determine the permeation rate of the selexipag metabolite ACT 333679 in vitro. All in vitro skin permeation studies were conducted using the PermeGear Membrane Transport System (PermeGear, Inc., Hellertown, Pa.). Each Membrane Transport System consists of vertical, jacketed (37° C.±0.5° C.) Franz diffusion cells with magnetic stirrer and 1.7 cm^2 diffusion area.
# Skin flux studies were run for a period of 48 hours. At predetermined intervals (3, 24 and 48 hours) after starting the experiment, the entire contents of the receiver compartment were collected for determination of the ACT 333679 concentration by HPLC. The receiver compartment was refilled with fresh receiver medium. The receiver medium was pH 7.4 water with 0.44 mg/ml of OLETH 20 (polyethylene glycol ether of oleyl alcohol) with the saturation concentration of the drug in the receptor medium being 0.23 mg/ml or 2 mg total in the receptor phase. […]
# One skin donor and three diffusion cells per formulation were used in these in vitro skin permeation experiments. […] Samples in the receptor phase were obtained at the 2, 4, 8, 12 and 24 hour intervals and the amount of selexipag or ACT333679 was determined by HPLC.
# [8] = Saturation concentration of the drug in the receptor medium; type: physicochemical; conditions: pH 7.4 water with 0.44 mg/ml OLETH 20
# Sequence of prostacyclin IP receptor (P43119 whole entry): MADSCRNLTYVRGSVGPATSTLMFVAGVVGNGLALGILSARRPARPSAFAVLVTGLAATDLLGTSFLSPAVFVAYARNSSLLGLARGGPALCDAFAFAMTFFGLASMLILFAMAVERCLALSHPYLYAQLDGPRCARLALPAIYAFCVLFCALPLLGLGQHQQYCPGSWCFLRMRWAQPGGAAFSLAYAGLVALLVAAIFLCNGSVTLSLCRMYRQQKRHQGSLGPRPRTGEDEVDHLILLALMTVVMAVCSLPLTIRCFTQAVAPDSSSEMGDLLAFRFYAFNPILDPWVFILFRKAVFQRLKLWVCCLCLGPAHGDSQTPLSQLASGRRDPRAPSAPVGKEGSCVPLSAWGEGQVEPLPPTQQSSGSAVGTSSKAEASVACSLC
Compound,metabolism of selexipag to ACT 333679 ([1]; carboxylases present in human plasma),metabolism of selexipag to ACT 333679 ([1]; human hepatic microsomes),difference in incidence of side effects between selexipag and placebo [2],average flux [3],absorption ([4]; oral),oral bioavailability [5],potency relative to selexipag [6],permeation through skin compared with selexipag [7],"saturation amount, total in the receptor phase [8]",saturation concentration of the drug in the receptor medium [8],effect of presence of food on AUC ([4]; presence of food)
CC(C)N(CCCCOCC(=O)NS(C)(=O)=O)c1cnc(-c2ccccc2)c(-c2ccccc2)n1 [selexipag],do not metabolize selexipag to ACT 333679,metabolized to ACT 333679 from hepatic microsomes,higher than 10%,1.2 micrograms per square centimeter per hour,~60%,–,–,–,–,–,–
CC(C)N(CCCCOCC(=O)O)c1cnc(-c2ccccc2)c(-c2ccccc2)n1 [ACT 333679],–,–,–,2.9 micrograms per square centimeter per hour,–,57%,at least 16 times,higher than that of selexipag,2 mg,0.23 mg/mL,27%
